Experimental data: patent US20030110524A1, “TRANSGENIC ORGANISMS AND THEIR USES” (priority 1997, published 2003)

What was measured:
[1] = system: spinal cord cells derived from the CD2-neo^r transgenic rat; assay: Survival and development of spinal cord cells from the CD2-neo^r transgenic rat under geneticin; assay type: cell-based; conditions: geneticin 1 mg/ml; 60 days in vitro
Method: Cultures of spinal cord cells derived from the CD2-neo^r transgenic rat were grown in small flasks, using previously established methods (Foster et al., (1990) Eur. J. Neurosci. 3, 32-39). At the beginning of the experimental period, in the region of 100 yeast spores, and unknown amounts of other common laboratory microbiological contaminants, were introduced into the flask. At the same time geneticin (1 mg/ml) was added. Thereafter, all manipulations of the medium and additions to the flask were conducted outside the sterile environment of the laminar flow cabinet.

[2] = system: lung fibroblast cells derived from control rats; assay: Survival of lung fibroblast cells from control rats with drugs; assay type: cell-based, rat; conditions: control rat cells, drugs added at day 2, geneticin 400 μg/ml, 5FC 100 μg/ml
Method: (§1) Fibroblast cultures derived from lung of adult CD2/neo^r, TG/TK/neo^r and control animals were produced and expanded by routine methods (Freshney (1987), Alan R. Liss, New York). Twenty-four hours after plating, geneticin (400 μg/ml) was added to cultures originating from both types of transgenic rats and from control rats, and replaced every three days with fresh medium. When required, cells were subcultured (1:3) to prevent them becoming confluent, again by basic culture methods (Freshney 1987). Cell counts were made manually in 20 fields chosen randomly and the values at each time point, after allowing for changes due to subculturing, were aggregated. […] In the absence of added geneticin, no change in cell survival from either of the transgenic animals was observed.
(§2) The effects of 5-fluorocytosine (5FC) were also determined. 5-fluorocytosine at a concentration of 100 μg/ml had no effect on fibroblast cells derived from control animals or from the TG/TK/neo^r transgenic. In the cells derived from the CD2/neo^r transgenic animal, however, 94% of the originally-plated cells died, or were non-functional (as determined by their failure to exclude trypan blue) after 10 days culture in the presence of 5FC (Table 2).
(§3) Drugs were added at day 2 in culture. Values are related to the number of cells found in control cultures without drug additions at various times after plating, and allowing for dilutions resulting from passaging. Figures are the means of three separate determinations, the standard errors all being less than 15% of the mean.

[3] = system: lung fibroblast cells derived from CD2/neo^r transgenic rats; assay: Survival of lung fibroblast cells from CD2/neo^r transgenic rats with drugs; assay type: cell-based, rat; conditions: CD2/neo^r rat cells, drugs added at day 2, geneticin 400 μg/ml, 5FC 100 μg/ml
Method: as §1, §2, §3

[4] = system: thyroid cells derived from TG/TK/neo^r transgenic rats; assay: Survival of thyroid cells from TG/TK/neo^r transgenic rats with drugs; assay type: cell-based, rat; conditions: TG/TK/neo^r rat cells, drugs added at day 2, geneticin 400 μg/ml, ACG 10 μg/ml
Method: (§4) Thyroid cultures derived from the thyroid gland of adult CD2/neo^r, TG/TK/neo^r and control animals were produced by routine methods (Freshney, 1987). Twenty-four hours after plating, geneticin (400 μg/ml) was added to cultures originating from both types of transgenic and the control rats, and replaced every three days with fresh medium. When required, cells were subcultured (1:2) to prevent their becoming confluent. Cell counts were made manually in 20 fields chosen randomly, and the values at each time point, after allowing for changes due to subculturing, were aggregated (Table 3). […] Ten days later, cell counts were again made of 20 fields chosen at random. […] The results were as expected in view of the specific and non-specific expression of the positive and negative selection markers, in the TG/TK/neo^r and CD2/neo^r transgenics, respectively.
as §3, with “allow” for “allowing”

[5] = system: thyroid cells derived from CD2/neo^r transgenic rats; assay: Survival of thyroid cells from CD2/neo^r transgenic rats with drugs; assay type: cell-based; conditions: CD2/neo^r rat cells, drugs added at day 2, geneticin 400 μg/ml, ACG 10 μg/ml
Method: as §4
as §3, with “allow” for “allowing”

[6] = system: thyroid cells derived from control rats; assay: Survival of thyroid cells from control rats with drugs; assay type: cell-based, rat; conditions: control rat cells, drugs added at day 2, geneticin 400 μg/ml, ACG 10 μg/ml
Method: as §4
as §3, with “allow” for “allowing”

[7] = system: lung fibroblast cells derived from TG/TK/neo^r transgenic rats; assay: Survival of lung fibroblast cells from TG/TK/neo^r transgenic rats with drugs; assay type: cell-based, rat; conditions: TG/TK/neo^r rat cells, drugs added at day 2, geneticin 400 μg/ml, 5FC 100 μg/ml
Method: as §1, §2, §3

SMILES: CN[C@@H]1[C@@H](O)[C@@H](O[C@@H]2[C@@H](O)[C@H](O[C@H]3O[C@H]([C@@H](C)O)[C@@H](O)[C@H](O)[C@H]3N)[C@@H](N)C[C@H]2N)OC[C@]1(C)O [geneticin]
- Survival and development of the neural cells compared to uninfected control cells grown without geneticin [1]: appeared unimpaired
- Survival of lung fibroblast cells (related to number of cells in control cultures without drug) ([2]; day 1 in culture): 99
- Survival of lung fibroblast cells (related to number of cells in control cultures without drug) ([2]; day 3 in culture): 101
- Survival of lung fibroblast cells (related to number of cells in control cultures without drug) ([2]; day 5 in culture): 85
- Survival of lung fibroblast cells (related to number of cells in control cultures without drug) ([2]; day 7 in culture): 23
- Survival of lung fibroblast cells (related to number of cells in control cultures without drug) ([2]; day 9 in culture): 5
- Survival of lung fibroblast cells (related to number of cells in control cultures without drug) ([2]; day 11 in culture): 2
- Survival of lung fibroblast cells (related to number of cells in control cultures without drug) ([3]; day 1 in culture): 91
- Survival of lung fibroblast cells (related to number of cells in control cultures without drug) ([3]; day 3 in culture): 94
- Survival of lung fibroblast cells (related to number of cells in control cultures without drug) ([3]; day 5 in culture): 91
- Survival of lung fibroblast cells (related to number of cells in control cultures without drug) ([3]; day 7 in culture): 93
- Survival of lung fibroblast cells (related to number of cells in control cultures without drug) ([3]; day 9 in culture): 107
- Survival of lung fibroblast cells (related to number of cells in control cultures without drug) ([3]; day 11 in culture): 105
- Survival of thyroid cells (related to number of cells in control cultures without drug) ([4]; day 1 in culture): 104
- Survival of thyroid cells (related to number of cells in control cultures without drug) ([4]; day 3 in culture): 105
- Survival of thyroid cells (related to number of cells in control cultures without drug) ([4]; day 5 in culture): 98
- Survival of thyroid cells (related to number of cells in control cultures without drug) ([4]; day 7 in culture): 88
- Survival of thyroid cells (related to number of cells in control cultures without drug) ([4]; day 9 in culture): 93
- Survival of thyroid cells (related to number of cells in control cultures without drug) ([4]; day 11 in culture): 98
- Survival of thyroid cells (related to number of cells in control cultures without drug) ([5]; day 1 in culture): 91
- Survival of thyroid cells (related to number of cells in control cultures without drug) ([5]; day 3 in culture): 94
- Survival of thyroid cells (related to number of cells in control cultures without drug) ([5]; day 5 in culture): 91
- Survival of thyroid cells (related to number of cells in control cultures without drug) ([5]; day 7 in culture): 93
- Survival of thyroid cells (related to number of cells in control cultures without drug) ([5]; day 9 in culture): 107
- Survival of thyroid cells (related to number of cells in control cultures without drug) ([5]; day 11 in culture): 105
- Survival of thyroid cells (related to number of cells in control cultures without drug) ([6]; day 1 in culture): 95
- Survival of thyroid cells (related to number of cells in control cultures without drug) ([6]; day 3 in culture): 91
- Survival of thyroid cells (related to number of cells in control cultures without drug) ([6]; day 5 in culture): 85
- Survival of thyroid cells (related to number of cells in control cultures without drug) ([6]; day 7 in culture): 56
- Survival of thyroid cells (related to number of cells in control cultures without drug) ([6]; day 9 in culture): 9
- Survival of thyroid cells (related to number of cells in control cultures without drug) ([6]; day 11 in culture): 4
- Survival of lung fibroblast cells (related to number of cells in control cultures without drug) ([7]; day 1 in culture): 97
- Survival of lung fibroblast cells (related to number of cells in control cultures without drug) ([7]; day 3 in culture): 105
- Survival of lung fibroblast cells (related to number of cells in control cultures without drug) ([7]; day 5 in culture): 108
- Survival of lung fibroblast cells (related to number of cells in control cultures without drug) ([7]; day 7 in culture): 101
- Survival of lung fibroblast cells (related to number of cells in control cultures without drug) ([7]; day 9 in culture): 105
- Survival of lung fibroblast cells (related to number of cells in control cultures without drug) ([7]; day 11 in culture): 111
